Measurements from article PMC7083565, “In vitro metabolism, reaction phenotyping, enzyme kinetics, CYP inhibition and induction potential of ataluren” (Pharmacology Research & Perspectives, 2020).
Like-named read-outs stand apart in the source and are kept apart here.

How the values were obtained:
Type in all cases: in vitro ADME
[1] = Plasma protein binding (ultrafiltration), rat; conditions: male, Sprague Dawley, 50 to 50 000 ng/mL, mean ± SD, n = 3, read-out: percentage protein binding (converted)
Protocol: [^14C]‐Ataluren, at 50, 500, 5000, and 50 000 ng/mL or 0.175, 1.75, 17.5, and 175 µM, in male mouse, rat, dog, monkey, and human plasma, was incubated (n = 3) at 37°C for approximately 15 minutes, transferred into Centrifree® Micropartition Units (30 000 Da molecular weight cutoff, 1 mL capacity; Amicon Inc), and centrifuged at 37°C and 2000 g for approximately 10 minutes so that the amount of the sample filtered was approximately ≤ 20% of the total volume. After centrifugation, the entire ultrafiltrate was weighed and analyzed for radioactivity using liquid scintillation counting. The percent bound = (1‐Cu/Cm)×100, where Cu is the concentration of radioactivity in the ultrafiltrate and Cm is the concentration of radioactivity in the plasma before centrifugation.

UGT (glucuronidation) = assay: Ataluren glucuronidation kinetics, human liver microsomes; conditions: human, pooled human liver microsomes, pH 7.5, HLM, read-out: CLint,u,UGT
Protocol: (§1) Ataluren at 0.5, 2.5, 12.5, 25, 50, 100, 200, and 400 µmol/L, was incubated (n = 3) at 37°C with recombinant human UGT1A9 and with pooled microsomes from human liver, kidney, and intestine (0.025 mg protein/mL, preactivated with alamethicin at 20 µg/mL) in Tris‐HCl buffer (0.1 mol/L, pH 7.5), in the presence of 1 mmol/L EDTA, 5 mmol/L MgCl2, with or without 0.5%, 1%, or 2% BSA. The incubation (100 µL final volume with 0.5% DMSO) was started by adding an equal volume of UDPGA (5 mmol/L) in Tris‐HCl buffer (0.1 mol/L, pH 7.5). After 30 minutes incubation, the incubation mixtures were combined with 0.3 mL of an internal standard solution in acetonitrile with 1% formic acid, followed by membrane plate filtration. The filtrates were used for LC‐MS/MS analysis to quantify the formation of ataluren‐O‐1β‐acyl glucuronide. Detailed LC‐MS/MS conditions are summarized in LC‐MS/MS Analysis section. Ataluren acyl glucuronide formation rate after 30 minutes incubation was calculated using the amount of metabolite formed (pmol) divided by the protein amount in the incubation sample (0.0025 mg) and the incubation time (30 minutes). Ataluren glucuronidation kinetic parameters were determined with and without adjusting BSA binding by nonlinear regression (GraphPad Prism, 5version 5.04, GraphPad Software, Inc.) using Michaelis‐Menten equation which was the best fit compared with other models. The intrinsic clearance was calculated as CLint = Vmax/Km. In order to compare unbound intrinsic clearance by glucuronidation (CLint,u,UGT) in different tissues, CLint,u,UGT was expressed per gram of tissue by correcting the values for the microsomal protein yield, resulting in scaled CLint,u,UGT. Microsomal protein yields of 40.0, 12.8, and 20.6 mg protein/g tissue were used for hepatic, renal, and intestinal data, respectively. ^26
(§2) The high‐throughput membrane ultrafiltration method ^27 was used to determine the fraction unbound in the incubation (n = 3). Incubation mixtures and procedures were essentially the same as the above except that UDPGA (5 mmol/L) was replaced with Tris‐HCl buffer (0.1 mol/L, pH 7.5). After 15 minutes incubation, aliquot was transferred to a Millipore Multiscreen Ultracel‐10 filter plate (10 kDa molecular mass cut off; EMD Millipore). The plate was centrifuged at 37°C and 3710 g. After 30 minutes centrifugation, aliquots of ultrafiltrates and incubation mixtures prior to ultrafiltration were quenched with an internal standard solution in acetonitrile, followed by membrane plate filtration. The filtrates were used for LC‐MS/MS analysis to quantify the concentration of ataluren. The same LC‐MS/MS conditions described above are summarized in LC‐MS/MS Analysis section. The free fraction = Cu/Cm, where Cu is the concentration of ataluren in the ultrafiltrate and Cm is the concentration of ataluren in the incubation system before centrifugation. Unbound Km (Km, u) was recalculated by applying Michaelis‐Menten equation using free ataluren concentrations after correcting BSA binding at each ataluren and BSA concentration level.
(§3) Quantification of ataluren‐O‐1β‐acyl glucuronide formation was conducted on an Accela pump and a PAL autosampler equipped with a TSQ Quantum Ultra mass spectrometer (Thermo Fisher Scientific). A Waters Acquity BEH column (C18, 1.7 µm, 50 × 2.1 mm; Waters Cooperation) was used and maintained at 50°C. The mobile phases were 0.1% formic acid in water (A) and acetonitrile (B). The flow rate was 0.6 mL/min and gradient program was as follows: linear gradient from 0% B to 95% B in 0.5 minutes and hold isocratic at 95% B for 1 minute; linear gradient from 95% B to 0% B in 0.1 minutes and hold isocratic at 0% B for 0.4 minutes. TSQ Quantum Ultra mass spectrometer was equipped with a heated electrospray ionization source operated in negative‐ion mode with a vaporizer temperature of 350°C, capillary temperature of 380°C, and spray voltage of 3 kV. […]

[2] = as above; conditions: for CLint,u,UGT (scaled) / K m / K m, u / V max: HLM; for CLint,u,UGT (scaled): 40.0 mg protein/g tissue; for K m / K m, u / V max: mean ± SE; for K m / K m, u / V max / fraction unbound at 15 min: n = 3; for fraction unbound at 15 min: human, pooled human liver microsomes incubation mixture, pH 7.5, HLM, mean ± SD, read-out: fu,inc
Protocol: as §1, §2, §3

`O=C(O)c1cccc(-c2noc(-c3ccccc3F)n2)c1` [ataluren, Ataluren] showed a fraction unbound at 15 min [1] of 0.013, a microsomal CLint (UGT (glucuronidation); 0% BSA) of 40.3 µL/min/mg and a microsomal CLint (UGT (glucuronidation); 0.5% BSA) of 326 µL/min/mg. The microsomal CLint (UGT (glucuronidation); 1% BSA) was 421 µL/min/mg, the microsomal CLint (UGT (glucuronidation); 2% BSA) was 313 µL/min/mg and the “CLint,u,UGT (scaled)” value ([2]; 0% BSA) was 1.61 mL/min/g of tissue. The K m ([2]; 0% BSA) was 29.9 ± 4.49 µM, the “K m, u” value ([2]; 0% BSA) was 29.9 ± 4.49 µM and the V max ([2]; 0% BSA) was 1204 ± 49.0 pmol/min/mg. The “CLint,u,UGT (scaled)” value ([2]; 0.5% BSA) was 13.0 mL/min/g of tissue, the K m ([2]; 0.5% BSA) was 54.3 ± 9.42 µM and the “K m, u” value ([2]; 0.5% BSA) was 4.50 ± 0.748 µM. The V max ([2]; 0.5% BSA) was 1465 ± 68.2 pmol/min/mg, the “CLint,u,UGT (scaled)” value ([2]; 1% BSA) was 16.9 mL/min/g of tissue and the K m ([2]; 1% BSA) was 67.9 ± 9.19 µM. The “K m, u” value ([2]; 1% BSA) was 3.00 ± 0.415 µM, the V max ([2]; 1% BSA) was 1264 ± 53.5 pmol/min/mg and the “CLint,u,UGT (scaled)” value ([2]; 2% BSA) was 12.5 mL/min/g of tissue. The K m ([2]; 2% BSA) was 108 ± 10.7 µM, the “K m, u” value ([2]; 2% BSA) was 2.83 ± 0.315 µM and the V max ([2]; 2% BSA) was 886 ± 34.7 pmol/min/mg. For the same molecule, the “maximal effect of BSA on CLint,u (increase)” value ([2]; human liver microsomes, with vs without BSA) was ~10 fold, the fraction unbound at 15 min ([2]; 0% BSA) was 1 ± 0.12 and the fraction unbound at 15 min ([2]; 0.5% BSA) was 0.093 ± 0.006. It also gave a fraction unbound at 15 min ([2]; 1% BSA) of 0.05 ± 0.007 and a fraction unbound at 15 min ([2]; 2% BSA) of 0.03 ± 0.005.
